Like-named read-outs stand apart in the source and are kept apart here.
Columns and labels:
[1] = comparative data, stated as obtained according to the same procedure; footnotes cite New J. Chem. 2019 and GFP congress 2022; cited from earlier work
[2] = in water at pH 7, estimated; cited from earlier work
[3] = Fluorescence titration with chlordecone, binding constant calculated with Bindfit; details: compounds of the invention; DMSO+2% H2O, 25 °C, host 5.0 µM or 0.5 µM, chlordecone 5.0 mM additions
Experimental: A solution of each hemicryptophane (2.5 mL, 5.0 µM for hosts 9 and 5 and 0.5 µM for host 8) in DMSO+2% H2O was transferred into the quartz cuvette. Successive additions of a concentrated chlordecone solution (5.0 mM in the same solvent mixture) were performed. The final volume of the solution was almost unchanged (2.5 mL) since very small volumes of chlordecone solution were added. The solutions were mixed and incubated for 30 s before irradiation at their maximum of excitation (274 nm, 297 nm and 349 nm for hosts 9, 5, 8 respectively) at 25 °C. The corresponding emission values during titration were then recorded. Fluorescence emission spectra are reproduced at Figures 1A (5), 1B (8), and 1C (9) and the relative fluorescence intensities as a function of the [chlordecone]/[hemicryptophane] are reproduced at Figures 2A (5), 2B (8), and 2C (9).
Binding constant (Ka) were calculated using Bindfit program and results are reproduced at Table 1 below, further including comparative data obtained according to the same procedure.

| Structure (SMILES) | Binding constant (Ka) [1] | further results |
| --- | --- | --- |
| COc1cc2c3cc1OCCOc1ccc(cc1)CNC(=O)CN1CC(=O)NCc4ccc(cc4)OCCOc4cc(c(cc4OC)C3)Cc3cc(OC)c(cc3C2)OCCOc2ccc(cc2)CNC(=O)C1 | [drawing 21] Ka = 126 L/mol ± 3.7% |  |
| COc1cc2c3cc1OCCOc1ccc(cc1)CNCCN1CCNCc4ccc(cc4)OCCOc4cc(c(cc4OC)C3)Cc3cc(OC)c(cc3C2)OCCOc2ccc(cc2)CNCC1 | [drawing 22] Ka = 2.1 x 10^4 L/mol ± 3.4% |  |
| COc1cc2c3cc1OCCOc1ccc4cc(ccc4c1)CNCCN1CCNCc4ccc5cc(ccc5c4)OCCOc4cc(c(cc4OC)C3)Cc3cc(OC)c(cc3C2)OCCOc2ccc3cc(ccc3c2)CNCC1 | [drawing 23] Ka = 6.4 x 10^3 L/mol ± 4.4% |  |
| C(#Cc1cc2c3cc1OCCOc1ccc(cc1)CNCCN1CCNCc4ccc(cc4)OCCOc4cc(c(cc4C#Cc4ccccc4)C3)Cc3cc(C#Cc4ccccc4)c(cc3C2)OCCOc2ccc(cc2)CNCC1)c1ccccc1 | [drawing 25] Ka = 1.4 x 10^5 L/mol ± 12% |  |
| COc1cc2c3cc1OCCOc1ccc(cc1-c1ccccc1)CNCCN1CCNCc4ccc(c(-c5ccccc5)c4)OCCOc4cc(c(cc4OC)C3)Cc3cc(OC)c(cc3C2)OCCOc2ccc(cc2-c2ccccc2)CNCC1 | [drawing 26] Ka = 1.9 x 10^4 L/mol ± 75% |  |
| COc1cc2c3cc1OCCOc1ccc(cc1)CN(S(=O)(=O)c1cccc4c(N(C)C)cccc14)CCN1CCN(S(=O)(=O)c4cccc5c(N(C)C)cccc45)Cc4ccc(cc4)OCCOc4cc(c(cc4OC)C3)Cc3cc(OC)c(cc3C2)OCCOc2ccc(cc2)CN(S(=O)(=O)c2cccc3c(N(C)C)cccc23)CC1 | [drawing 27] Ka = 3.0 x 10^3 L/mol ± 6.9% |  |
| O=C1C2(Cl)C3(Cl)C4(Cl)C(Cl)(Cl)C5(Cl)C3(Cl)C1(Cl)C5(Cl)C24Cl (centres unmarked) [Chlordecone] |  | solubility [2]: around 2 mg/L |
| COc1cc2c3cc1OCCNCc1cc(-c4ccccc4)ccc1OCc1cc4cc(c1)COc1ccc(-c5ccccc5)cc1CNCCOc1cc(c(cc1OC)Cc1cc(c(OC)cc1C3)OCCNCc1cc(-c3ccccc3)ccc1OC4)C2 [compound 9] |  | Binding constant (Ka) [3]: [drawing 20] Ka = 4.6 x 10^5 L/mol ± 17% |

Source: EP4461773A1, “FLUORESCENT HEMICRYPTOPHANES AND USES THEREOF” (Ecole Centrale de Marseille, priority 2023, dated 2024)
